# Measured values: patent publication US7833795B2, “Assessment of cardiovascular risk using isoprostane biomarkers and COX-2 selective inhibitors” (The Trustees of the University of Pennsylvania, priority 2004, dated 2010)
# Legend:
# Male Fisher 344 rats [1] = assay: Plasma lipid hydroperoxides (iodometric assay) after CCl4; format: in vivo, rat
# Procedure: (§1) Animals and treatment protocol: Male Fisher 344 rats (260-280 g) obtained from Charles River Laboratories (Raleigh, N.C.) were used in all experiments. The animals were housed three to a cage. Autoclaved hardwood bedding was used in solid-bottom polycarbonate cages with filter tops. Animal rooms were maintained at 20-25° C. with 35-70% relative humidity with alternating 12-hour light and dark cycles. The rats had free access to deionized, reverse-osmosis-treated water and received autoclaved NIH 31 rodent chow (Zeigler Bros., Gardners, Pa.) ad libitum. For all experiments, rats were fasted overnight and then administered intraperitoneal injections of carbon tetrachloride in canola oil. Control rats received an equal volume of canola oil. Fasting continued throughout the experiment. Rats were anesthetized with Nembutal (0.1 ml/100 g body weight) and 5 ml blood was removed from the dorsal aorta proximal to its bifurcation into the common iliac arteries.
# (§2) Carbon tetrachloride (CCL4) treatment: Animals from each of the three dose groups (Control-canola oil, 120 mg/kg CCl4 i.p. and 1200 mg/kg CCl4 i.p.) were investigated at three time points (2, 7, and 16 hours after CCl4 injection). Indomethacin-pretreated rats were also investigated at the same three time points, and the meclofenamic acid-pretreated rats were investigated at one time point (7 hours). Each group consisted of five rats for each analysis, except the meclofenamic acid pretreatment group which consisted of six rats. Animal treatment, sample preparation, assessment of liver histology and serum enzyme activities are described elsewhere (Kadiiska et al., 2000, Free Radic. Biol. Med. 28: 838-845; Jackson, 1989, J. Pharmacol. Exp. Ther. 250: 9-21) and were carried out at NIEHS, Research Triangle Park, N.C.
# (§3) Plasma sample preparation: Blood (5 ml) was drawn through single draw Vacutainer® needles (21 Gauge) into open Vacutainer® blood collection tubes containing heparin. The tubes were gently inverted 2-3 times for mixing and immediately placed on ice. Blood was centrifuged (2,000 rpm for 10 minutes at 4° C.) no more than 30 minutes after collection, and the plasma was collected, frozen on dry ice and stored at −70° C.
# The second assay of plasma lipid hydroperoxides used iodometric spectrophotometric determination. Concentrations of lipid hydroperoxides were measured according to a slightly modified procedure of Cramer et al. (1991, Anal. Biochem. 193: 204-211) where plasma was treated to enzymatically hydrolyze lipids, and nonesterified fatty acid peroxides were then extracted with ethyl acetate. Extracted lipids were reacted with potassium iodide in citric acid and methylene chloride, and the resulting triiodide ion (I3^−) was measured spectrophotometrically. All measurements were done at the United States Environmental Protection Agency (EPA), Research Triangle Park, N.C.
# Male Fisher 344 rats [2] = assay: Plasma MDA, TBA colorimetric assay with 3rd derivative spectroscopy; format: in vivo, rat; settings: plasma
# Procedure: as §1, §2, §3
# Two colorimetric-based assays, using third derivative spectroscopy, were also used to measure MDA in plasma. The TBA colorimetric assay is designed to measure free MDA and MDA-protein adducts (Schiff base), and therefore includes mild acid hydrolysis. The Bioxytech® LPO-586™ colorimetric assay is based upon the reaction of the chromogenic reagent N-methyl-2-phenylindole (NMPI) with MDA at 45° C. One molecule of free MDA combines with 2 molecules of the chromogenic agent to produce a stable chromophore with a maximal absorbance at 586 nm. In both assays, the concentration of MDA was determined with 3rd derivative spectroscopy. Both assays were developed by OXIS Research Inc., Portland, Oreg., and were performed at OXIS and at Loyola University Medical Center, Maywood, Ill.
# Male Fisher 344 rats [3] = assay: Urinary 8,12-iso-iPF2α-VI by LC/MS/MS; format: in vivo, rat; settings: for 8,12-iso-iPF2a-VI (by LC/MS/MS): urine
# Procedure: as §1
# Indomethacin pretreatment: The indomethacin regimen used has been previously shown to inhibit COX activity in rats by 90% (dose of 5 mg/kg s.c. 24 hours, 12 hours, and 2 hours prior to the injection of CCl4) (Jackson, 1989, J. Pharmacol. Exp. Ther. 250: 9-21). An additional booster dose was injected 8 hours after the last injection of CCl4 for the measurements performed 16 hours after treatment with CCl4.
# (§4) Meclofenamic acid pretreatment: Meclofenamic acid was injected at a dose of 5 mg/kg i.p. 12 h and 2 h prior to the injection of CCl4.
# as §2
# Urine sample preparation: The day prior to treatment, both experimental and control animals were placed in stainless steel metabolic cages especially designed for urine collection. For Experimental Example 2, animals were placed in metabolic cages immediately after the last injection of indomethacin or meclofenamic acid. Urine was collected (in dark vials) from the animals during the following intervals: 2 to 7 hours and 7 to 16 hours after CCl4 or canola oil (controls) treatment. Urine samples from indomethacin-pretreated rats were collected from 2 to 7 hours and 7 to 16 hours after the injection of CCl4, whereas samples from meclofenamic-acid-pretreated rats were collected only from 2 to 7 hours after the injection. All urine samples were immediately frozen on dry ice and stored at −70° C.
# Analysis of 8,12-iso-iPF2α-VI, which is, along with its epimer 5-epi-8,12-iso-iPF2α-VI, the most prevalent PGF-ring isoprostane in human urine, was accomplished by addition of a tetradeuterated analog, solid phase extraction and quantitation using liquid chromatography and tandem mass spectroscopy (LC/MS/MS) (Li et al., 1999, Proc. Natl. Acad. Sci. USA 96: 13381-13386). The measurements were performed at the University of Pennsylvania, Philadelphia, Pa.
# Male Fisher 344 rats [4] = assay: Urinary free 8-iso-PGF2α by radioimmunoassay; format: in vivo, rat; settings: both doses of CCl4, 7 h
# Procedure: as §1, §4
# as §2, with “N.C. […]” for “N.C.”
# In Experimental Example 2, urine samples were also analyzed for free 8-iso-PGF2α, without any extraction, by radioimmunoassay (Basu, 1998, Prost. Leuk. Ess. Fatty Acids. 58: 319-325). […]
# Male Fisher 344 rats [5] = settings: cited from earlier work
smiles,measurement,setting,value
"ClC(Cl)(Cl)Cl [CCl4, Carbon tetrachloride]",LOOH (iodometric assay),"Male Fisher 344 rats [1]; CCl4 120 mg/kg i.p., 2 h",0.30 µM
same,LOOH (iodometric assay),"Male Fisher 344 rats [1]; CCl4 120 mg/kg i.p., 7 h",0.30 µM
same,LOOH (iodometric assay),"Male Fisher 344 rats [1]; CCl4 120 mg/kg i.p., 16 h",0.56 µM
same,LOOH (iodometric assay),"Male Fisher 344 rats [1]; CCl4 1200 mg/kg i.p., 2 h",1.42 µM
same,LOOH (iodometric assay),"Male Fisher 344 rats [1]; CCl4 1200 mg/kg i.p., 7 h",0.40 µM
same,LOOH (iodometric assay),"Male Fisher 344 rats [1]; CCl4 1200 mg/kg i.p., 16 h",0.39 µM
same,plasma MDA,"Male Fisher 344 rats [2]; CCl4 120 mg/kg i.p., 2 h",0.268 µM
same,plasma MDA,"Male Fisher 344 rats [2]; CCl4 120 mg/kg i.p., 7 h",0.209 µM
same,plasma MDA,"Male Fisher 344 rats [2]; CCl4 120 mg/kg i.p., 16 h",0.214 µM
same,plasma MDA,"Male Fisher 344 rats [2]; CCl4 1200 mg/kg i.p., 2 h",0.686 µM
same,plasma MDA,"Male Fisher 344 rats [2]; CCl4 1200 mg/kg i.p., 7 h",0.274 µM
same,plasma MDA,"Male Fisher 344 rats [2]; CCl4 1200 mg/kg i.p., 16 h",0.156 µM
same,"8,12-iso-iPF2a-VI (by LC/MS/MS)","Male Fisher 344 rats [3]; CCl4 120 mg/kg i.p., 7 h",36.8 ng/mL
same,"8,12-iso-iPF2a-VI (by LC/MS/MS)","Male Fisher 344 rats [3]; CCl4 120 mg/kg i.p., 16 h",32.4 ng/mL
same,"8,12-iso-iPF2a-VI (by LC/MS/MS)","Male Fisher 344 rats [3]; CCl4 1200 mg/kg i.p., 7 h",84.3 ng/mL
same,"8,12-iso-iPF2a-VI (by LC/MS/MS)","Male Fisher 344 rats [3]; CCl4 1200 mg/kg i.p., 16 h",78.5 ng/mL
same,"increase of urinary 8,12-iso-iPF2α-VI","Male Fisher 344 rats [3]; high dose CCl4, 7 h",17 fold
same,"increase of urinary 8,12-iso-iPF2α-VI","Male Fisher 344 rats [3]; high dose CCl4, 16 h",7 fold
same,urinary free 8-iso-PGF2α (radioimmunoassay),Male Fisher 344 rats [4],dose-dependent increase
same,serum liver enzyme activities,"Male Fisher 344 rats [5]; CCl4 120 and 1200 mg/kg, 2, 7, 16 h",significant increase in many of the enzyme activities studied was observed at the high dose at 2 hours and for both doses at 7 and 16 hours
same,"hepatic effects, histology","Male Fisher 344 rats [5]; both doses of CCl4, each time point",diffuse hepatocyte degeneration and infiltration of inflammatory cells associated with necrosis
